Measured values from EP3431468B1, “USE OF ADIPONECTIN RECEPTOR AGONISTS IN TREATING DEPRESSION, ANXIETY AND NEUROINFLAMMATION” (CENTRE NATIONAL DE LA RECHERCHE SCIENTIFIQUE, priority 2017, dated 2019).

Key:
[1] = system: serotonin pathway; experiment: 5-HT and 5-HIAA levels in dorsal raphe nucleus; format: in vivo; details: corticosterone-exposed mice, chronic AdipoRon
[2] = system: AMPK; experiment: AMPK phosphorylation in hypothalamus by western blot; format: in vivo, mice; details: 1mg/kg
[3] = target: T1, AdipoR2 (Homo sapiens, UniProt Q86V24); details: Okada-Iwabu, Yamauchi et al. 2013; cited from earlier work
T1 sequence (Q86V24 1-386): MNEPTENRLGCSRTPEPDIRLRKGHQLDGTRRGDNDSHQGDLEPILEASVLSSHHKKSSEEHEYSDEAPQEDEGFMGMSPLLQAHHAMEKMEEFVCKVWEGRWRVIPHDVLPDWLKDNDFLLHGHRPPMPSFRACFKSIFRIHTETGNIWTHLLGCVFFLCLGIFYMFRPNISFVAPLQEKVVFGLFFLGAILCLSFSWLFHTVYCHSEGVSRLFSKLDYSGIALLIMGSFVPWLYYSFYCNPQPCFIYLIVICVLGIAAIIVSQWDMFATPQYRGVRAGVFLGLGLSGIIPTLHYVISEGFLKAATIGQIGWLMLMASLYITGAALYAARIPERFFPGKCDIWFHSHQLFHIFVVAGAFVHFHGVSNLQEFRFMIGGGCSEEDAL

[4] = system: wt mice; experiment: Open-field test (OF), locomotor activity; format: in vivo; details: chronic ip 1mg/kg for twenty consecutive days, 10 minutes recording
Method: All behavioral testing were conducted during the light phase (between 09:00 and 14:00 am) in compliance with the Institutional Animal Care and Use Committee of the University of Nice-Sophia Antipolis (permission number 010344.01 from the French "Ministère de l'Enseignement Supérieur et de la Recherche" granted to Dr. Joëlle Chabry). • Forced Swimming test (FST) - Mice were placed an inescapable transparent tank (20cm diameter, 30cm deep) filled with water (23°C ± 0.5) for six minutes as previously described by Porsolt et al. (1977). The immobility duration, as an index of the resignation, was timed during the last four minutes of the test. A mouse was considered immobile when it remained floating with only slight movements to keep its head out of the water. • Open-field test (OF) - Locomotor activity was determined using open-field (OF) activity. […] Twenty-four hours later, the latency to fall, an index of the motor coordination, was recorded on accelerating rod (from 10 to 40 rpm/min). • Light & Dark test (L&D) - The L&D place preference test was used to assess the anxiety-like behavior. […] To initiate testing, mice were placed into the light side and activity was recorded for 5 minutes. […] The amount of water and 1% sucrose solution was measured twenty-four hours later. […]

With O=C(COc1ccc(C(=O)c2ccccc2)cc1)NC1CCN(Cc2ccccc2)CC1 [AdipoRon, 2-(4-Benzoylphenoxy)-N-[1-(phenylmethyl)-4-piperidinyl]-acetamide] as the compound, how does the 5-HT level [1] read?
The 5-HT level was “without modifying the 5-HT level”.

What about the “level of 5-HIAA” value [1] of the same compound?
Its value is “increased the level of 5-HIAA”.

What about the “ratio 5-HIAA/5-HT” value [1] of the same compound?
Its value is “threefold increase”.

What about the “level of phospho-AMPK” value ([2]; 1-hour post ip injection) of the same compound?
Its value is “increased the level of phospho-AMPK”.

What about the “level of phospho-AMPK” value ([2]; 30 min post ip injection) of the same compound?
The value was “increased the level of phospho-AMPK”.

And the “level of phospho-AMPK” value ([2]; 3 hours post ip injection)?
Its value is “no longer observable”.

And the “binding to adiponectin receptor” value [3]?
Its value is “bind”.

And the “mean speed in the OF test” value [4]?
The value was “did not significantly modify”.

What about the “total distance traveled in the OF test” value [4] of the same compound?
The value was “did not significantly modify”.
